Experimental data published in ChEMBL document CHEMBL3044997, “Cytotoxic Effect of Coscinium Fenestratrum (Gaertn.) Colebr. and its Active Principle Berberine on L929 Cells” (2005).

How the values were obtained:
Type in all cases: functional
L929 [1] = test: Cytotoxicity against Mus musculus (mouse) L929 cells assessed as metabolically active cells at 100 ug/ml after 24 hr by MTT assay relative to control
L929 [2] = test: Cytotoxicity against Mus musculus (mouse) L929 cells assessed as metabolically active cells at 200 ug/ml after 24 hr by MTT assay relative to control
L929 [3] = test: Cytotoxicity against Mus musculus (mouse) L929 cells assessed as metabolically active cells at 150 ug/ml after 24 hr by MTT assay relative to control
L929 [4] = test: Cytotoxicity against Mus musculus (mouse) L929 cells assessed as metabolically active cells at 50 ug/ml after 24 hr by MTT assay relative to control

COc1ccc2cc3[n+](cc2c1OC)CCc1cc2c(cc1-3)OCO2.[Cl-] [BERBERINE CHLORIDE]
Activity (L929 [1]): 67.41% | Activity (L929 [2]): 23.57% | Activity (L929 [3]): 41.77% | Activity (L929 [4]): 106.45%
